In US12569437B2, “Disease-site-specific liposomal formulation” (Osaka University, priority 2017, dated 2026):
Marks after values point to notes of the source that are not given here.

Assays:
[1] = test system: BLM pulmonary fibrosis model mice; assay: Survival rate in BLM pulmonary fibrosis model mice; format: in vivo; conditions: day 6 to 28 after BLM
Experimental: C57BL/6NCr female mice (7 weeks old) were anesthetized with sodium pentobarbital, and then intratracheally (intrapulmonary) administered with 20 μL of a bleomycin hydrochloride aqueous solution (BLM) twice (40 μL in total per animal). In a normal group (Normal), vehicle (physiological saline) was similarly intratracheally administered.
From 6 days to 28 days after the BLM administration, the test substance was administered to compare the survival rates. As the test substances, compound (A) (ONO-1301) was repeatedly orally administration twice daily, compound (A) (ONO-1301) was intravenously administered once weekly, and compound (A) (ONO-1301) was intratracheally administered once weekly. Further, Formulation 25 (ONO-1301Lipo) was intravenously administered once weekly, and Formulation 25 (ONO-1301Lipo) was intratracheally administered once weekly to analyze the DDS effect of Formulation 25 (ONO-1301Lipo) by comparing the survival rates.
From 6 days after the preparation of the lung injury model, the vehicle and compound (A) (3 mg/kg) were repeatedly orally administered twice daily for 23 days (the administration interval between morning and afternoon was 8 hours or more).
(§1) The administration was performed 6 days after the preparation of the lung injury model; after that, tail vein intravenous administration was performed once weekly (4 times in total, i.e., 6, 13, 20, and 27 or 28 days after the preparation of the model).
as §1, with “intratracheal” for “tail vein intravenous”, “model). In normal Group 9 (Normal), physiological saline was administered in a similar manner.” for “model).”

[2] = test system: rat model of ischemia by complete coronary artery ligation; assay: Echocardiography (EF %, % FS) in rat model of ischemia by complete coronary artery ligation; format: in vivo
Experimental: An improvement in the cardiac function against ischemic heart disease and an effect of preventing death from heart failure by intermittent intravenous administration of Formulation 25 (ONO-1301Lipo) or compound (A) (ONO-1301) were analyzed by using the left ventricular ejection fraction (hereinafter referred to as “EF %”), left ventricular fractional shortening (hereinafter referred to as “% FS”), and histological evaluation, based on echocardiography, as indices.
Male Sprague-Dawley rats (CLEA Japan, Inc., 6 weeks old when arrived) were anesthetized with a liquid mixture of 0.5 mg/kg of midazolam (Dormicum Injection 10 mg, Astellas Pharma Inc.) and 2 mg/kg of xylazine (Celactal 2% injection, Bayer Japan Ltd.). Thereafter, the animal tail veins were secured, and Propofol (1% Diprivan Injection; AstraZeneca K.K.) was continuously infused at 6 to 10 mg/kg/hr with a syringe pump (Terufusion TE-3310N; Terumo Corporation) to maintain deep anesthesia. Thereafter, a tracheal cannula (a cut-down catheter with an outside diameter of 2.0 mm, produced by JMS Co., Ltd.) was inserted and indwelled, and a respirator (for small animals; Shinano Seisakusho) was connected to maintain breathing at a stroke volume of 1 mL/100 g/stroke (±1 mL) and a stroke rate of 70 times/min (±10 times). Thereafter, the animals were fixed in a recumbent position from a dorsal fixed position so that the left chest faced upward, and the epidermis and muscle layer between the third to fourth or fourth to fifth ribs were incised with a surgical knife. After confirming that the knife reached the thoracic cavity, the intercostal space was widened with a rib spreader, and a state in which the anterior descending branch (hereinafter referred to as “LAD”) from the left atrial appendage was directly visible at the front was secured.
Thereafter, the translucent thin pericardium was removed with tweezers to expose the myocardium. Thereafter, the LAD located at the margin of the left atrial appendage was pierced and secured with a nylon thread with a 6-0 or 7-0 needle at a depth of 2 to 3 mm using a microneedle holder, and the LAD was completely ligated. Thereafter, the muscle layer and epidermis were sutured and closed with a 4-0 or 5-0 nylon thread. After the chest was closed, 50 mg of cefamedin was subcutaneously administered to the treatment site, and the treatment was terminated.
Echocardiography was performed to confirm the cardiac function improving effect of the test substances using the left ventricular ejection fraction (hereinafter referred to as “EF %”) as an index.
The test was performed 23 hours after the preparation of the model (test for grouping), the animals whose EF % value decreased by 25% or more of that of normal animals were selected, grouping was performed, and a solution for administration of the test substances was administered by tail vein intravenous administration 24 hours after the preparation of the model. Thereafter, echocardiography was performed 7 and 14 days after the test substance administration.

[3] = test system: rat monocrotaline (MCT)-induced severe heart failure (pulmonary hypertension) model; assay: Survival rate in rat monocrotaline-induced pulmonary hypertension model; format: in vivo; conditions: 42 days after MCT
Source text: The produced Formulation 21 (ONO-1301Lipo formulation) as a test substance was intermittently administered intravenously once weekly to a rat monocrotaline (MCT)-induced severe heart failure (pulmonary hypertension) model from day 7 of the MCT administration, and the survival rate was compared with a group in which compound (A) (ONO-1301) was repeatedly orally administered; a group in which compound (A) was intermittently administered intravenously once weekly; and, as a positive control, a group in which an ET-1 antagonist (bosentan) was orally administered. In the control group, physiological saline (vehicle) was administered once weekly by intravenous administration.
For animals, Slc: Wistar male rats, 5 weeks old at the start of the test, and 66.4 to 90.8 g at arrival (Japan SLC, Inc.) were used. Monocrotaline (hereinafter referred to as “MCT”), lot No.: SLBG1999V (Sigma-Aldrich Corporation), was administered once subcutaneously at the back of the rats at a dose of 60 mg/kg. Six days after the MCT administration, the animals were divided into groups according to the weight stratification assignment method (Table 19).

[4] = Body weight and heart and lung weights in J2N-k hamsters; format: in vivo, hamster; conditions: for Body weight (g) at dissection: week 8
Experimental: Dissection was performed as follows. After all of the blood was collected from the abdominal aorta, and the hamsters were euthanized under isoflurane anesthesia, the heart and lungs were removed and weighed. After the weights thereof were measured, the removed parts, including the left and right ventricles, were divided into three parts; i.e., apical, middle, and basal parts, at intervals of about 2 mm along the short axis.
Tables 26 and 27 show the body weight change at the time of grouping and at the time of dissection, and the weights of heart and lung at the time of dissection.

[5] = 3.0 mg/kg single i.v. 24 hours after infarction, day 7
[6] = 3.0 mg/kg single i.v. 24 hours after infarction, day 14
[7] = group 3.0 mg/kg single i.v., 23 hours after LAD ligation, before administration

## O=C(O)COc1cccc2c1CCC=C2CCO/N=C(\c1ccccc1)c1cccnc1 [Compound (A), ({5-[2-({[(1E)-phenyl(pyridin-3-yl)methylene]amino}oxy)ethyl]-7,8-dihydronaphthalen-1-yl}oxy)acetic acid]
[1]; intratracheal 1 mg/kg once/week
  survival rate: 20%
[1]; intravenous 3 mg/kg once/week
  survival rate: 40%
[1]; oral 3 mg/kg twice/day
  survival rate: 60%
[2]; [5]
  % FS 1 W: 25.4 ± 5.6%
  EF % 1 W: 54.6 ± 8.8%
[2]; [6]
  % FS 2 W: 24.5 ± 4.4%
  EF % 2 W: 53.2 ± 7.1%
[2]; [7]
  % FS Pre: 26.5 ± 3.7 %
  EF % Pre: 56.7 ± 5.5 %
[3]; intravenous 1 mg/kg/week from day 7
  Survival rate (%): 20%
[3]; oral 3 mg/kg × twice/day from day 7
  Survival rate (%): 50* %
[4]; 3.0 mg/kg i.v. once/2 weeks
  Body weight (g) at dissection: 144.4 ± 13.3 g
[4]; 3.0 mg/kg p.o. twice/day
  Body weight (g) at dissection: 128.6 ± 3.0 g
[4]; group 3.0 mg/kg i.v. once/2 weeks
  Body weight (g) Before drug administration: 128.7 ± 10.4 g
[4]; group 3.0 mg/kg p.o. twice/day
  Body weight (g) Before drug administration: 118.8 ± 9.6 g
